In patent US20100184869A1, “METHOD AND KIT FOR DETERMINING SIRTUIN MODULATING AGENTS, SIRTUIN MODULATING PROCEDURE, SIRTUIN MODULATING COMPOUNDS AND COMPOSITIONS INCLUDING THE SAME” (priority 2008, published 2010):

Test system: SIRT1 gene expression
Experiment: semi-quantitative RT-PCR of sirtuin mRNA/β-actin mRNA ratio in zebrafish tissues after resveratrol
Format: in vivo, zebrafish (Danio rerio)
Conditions: FIG. 3
Source text: On the Y axis, I is the rate of mRNA X, a is muscle and b is liver.
The method for determining modulating agents of sirtuin gene expression is comprised of the following stages: • a) contacting cells comprising at least on gene of the sirtuin family and the β-actin gene, with a modulating agent; • b) determining the relative abundance of mRNA of the sirtuin-family gene; • c) determining the relative abundance of the mRNA of the β-actin gene; and • d) determining the mRNA SIRTImRNA β-actin ratio.
The mapping of the pattern and levels of expression in each one of the eight genes related to zebrafish sirtuin was determined in eight tissues (spleen, gills, brain, heart, liver, female sexual organs and male sexual organs, skeletal muscle and kidneys), by way of the analysis of semi-quantitative RT-PCR comparing the relative abundance of mRNA of each one of the genes related to sirtuins with the mRNA of the gene codifying for β-actin (mean ±E.P.) (FIG. 2 and Table 2).

## Oc1ccc(/C=C/c2cc(O)cc(O)c2)cc1 [resveratrol, 3.4′,5-trihydroxy-trans-stilbene]
Zebrafish liver
  SIRT1 gene expression (mRNA SIRT/mRNA β-actin ratio): significant increase
Zebrafish skeletal muscle
  SIRT1 gene expression (mRNA SIRT/mRNA β-actin ratio): significant increase
